The record followed here is US10544130B2, “Metallo-beta-lactamase inhibitors” (priority 2015, dated 2020).

For this data set, the system named is Pseudomonas aeruginosa PAO1 MB9798 (efflux+, IMP-1). Conditions: ratio MITC95 PA 9798/MITC95 PA 9799; imipenem at 2 μg/mL. The source says: The strain background was Pseudomonas aeruginosa PAO1.
The strain set was then used as a pair to determine the effect of metallo-β-lactamase inhibitors of Formula I on the MIC of imipenem and/or ceftazidime. A fixed concentration of antibiotic was included in standard microbroth MIC tests, usually at the CLSI (Clinical and Laboratory Standards Institute) breakpoint concentration. A fixed amount of a class A/C beta-lactamase inhibitor was also included to inhibit the resident Pseudomonas AmpC enzyme. A serial titration of the metallo-β-lactamase inhibitor was included and the concentration of metallo-β-lactamase inhibitor which restores susceptibility of the strain to the included antibiotic was recorded. That concentration of metallo-β-lactamase inhibitor was then compared between the two strains to determine the fold difference between the efflux + (MB9798) and efflux − (MB9799) strains. This was taken as an indication of the extent to which the MBLi is subject to efflux.

Consider `Nc1nc2c(-c3ccc(S(=O)(=O)NCC4CCN4)c(S(N)(=O)=O)c3-c3nn[nH]n3)cccc2[nH]1` (stereo not drawn) [Example 207, 4-(2-amino-1H-benzo[d]imidazol-4-yl)-N1-(azetidin-2-ylmethyl)-3-(2H-tetrazol-5-yl)benzene-1,2-disulfonamide], for which the Efflux ratio turned out to be 2.00. In the case of `NC[C@@H](O)CNS(=O)(=O)c1ccc(-c2ccc(N)nc2)c(-c2nn[nH]n2)c1S(N)(=O)=O` [Example 303, (R)-N1-(3-amino-2-hydroxypropyl)-4-(6-aminopyridin-3-yl)-3-(2H-tetrazol-5-yl)benzene-1,2-disulfonamide], the Efflux ratio was determined as 1.00. The same measure for `NCCCNS(=O)(=O)c1ccc(-c2cccc3sc(N)nc23)c(-c2nnn[nH]2)c1S(N)(=O)=O.O=C(O)C(F)(F)F` [Example 90, 3-(4-(2-aminobenzo[d]thiazol-4-yl)-2-sulfamoyl-3-(1H-tetrazol-5-yl)phenylsulfonamido) propan-1-aminium 2,2,2-trifluoroacetate]: 0.50. On to `Nc1nc2c(-c3ccc(S(=O)(=O)N4CC(N)C4)c(S(N)(=O)=O)c3-c3nn[nH]n3)cccc2s1` [Example 147, 6-((3-aminoazetidin-1-yl)sulfonyl)-3-(2-aminobenzo[d]thiazol-4-yl)-2-(2H-tetrazol-5-yl)benzenesulfonamide], for which the Efflux ratio is reported as 1.00.

With `NCCNS(=O)(=O)c1ccc(-c2cccc3oc(N)nc23)c(-c2nn[nH]n2)c1S(N)(=O)=O` [Example 11, 4-(2-aminobenzo[d]oxazol-4-yl)-N^1-(2-aminoethyl)-3-(2H-tetrazol-5-yl)benzene-1,2-disulfonamide], the Efflux ratio came to 1.00. The same measure for `Nc1nc2c(-c3ccc(S(=O)(=O)NC4(CO)CCNC4)c(S(N)(=O)=O)c3-c3nnn[nH]3)cccc2s1` (stereo not drawn) [Example 84, 4-(2-amino-1,3-benzothiazol-4-yl)-N1-[3-(hydroxymethyl)pyrrolidin-3-yl]-3-(1H-tetrazol-5-yl)benzene-1,2-disulfonamide]: 1.00; for `CN(C)CC(F)(F)CNS(=O)(=O)c1ccc(-c2cccc3sc(N)nc23)c(-c2nnn[nH]2)c1S(N)(=O)=O` [Example 16, 4-(2-amino-1,3-benzothiazol-4-yl)-N1-[3-(dimethylamino)-2,2-difluoropropyl]-3-(1H-tetrazol-5-yl)benzene-1,2-disulfonamide]: 16.00. The same measure for `Nc1cncc(-c2ccc(S(=O)(=O)N[C@@H]3CCNC3)c(S(N)(=O)=O)c2-c2nn[nH]n2)c1` [Example 219, (R)-4-(5-aminopyridin-3-yl)-N1-(pyrrolidin-3-yl)-3-(2H-tetrazol-5-yl)benzene-1,2-disulfonamide]: 1.00; for `Nc1nc2c(-c3ccc(S(=O)(=O)NC4CN5CCC4CC5)c(S(N)(=O)=O)c3-c3nnn[nH]3)cccc2s1.O=C(O)C(F)(F)F` (stereo not drawn) [Example 97, 3-(4-(2-aminobenzo[d]thiazol-4-yl)-2-sulfamoyl-3-(1H-tetrazol-5-yl)phenylsulfonamido) quinuclidin-1-ium 2,2,2-trifluoroacetate]: 1.00; for `NCCCNS(=O)(=O)c1ccc(-c2cccc3[nH]c(N)nc23)c(-c2nn[nH]n2)c1S(N)(=O)=O` [Example 182, 4-(2-amino-1H-benzo[d]imidazol-4-yl)-N1-(3-aminopropyl)-3-(2H-tetrazol-5-yl)benzene-1,2-disulfonamide]: 0.80. Then `NCCNS(=O)(=O)c1ccc(-c2cccc3[nH]nnc23)c(-c2nn[nH]n2)c1S(N)(=O)=O` [Example 236, N^1-(2-aminoethyl)-4-(1H-benzo[d][1,2,3]triazol-4-yl)-3-(2H-tetrazol-5-yl)benzene-1,2-disulfonamide], with 1.00; and `Nc1nc2c(-c3ccc(S(=O)(=O)N[C@H]4CN[C@H](CO)C4)c(S(N)(=O)=O)c3-c3nnn[nH]3)cccc2[nH]1` [Example 172, 4-(2-amino-1H-benzo[d]imidazol-4-yl)-N^1-((3R,5S)-5-(hydroxymethyl)pyrrolidin-3-yl)-3-(1H-tetrazol-5-yl)benzene-1,2-disulfonamide], with 0.50. As for `CN(C)CCCN(C)S(=O)(=O)c1ccc(-c2cccc3sc(N)nc23)c(-c2nnn[nH]2)c1S(N)(=O)=O` [Example 52, 4-(2-amino-1,3-benzothiazol-4-yl)-N1-[3-(dimethylamino)propyl]-N~1~-methyl-3-(1H-tetrazol-5-yl)benzene-1,2-disulfonamide], the Efflux ratio is 2.00. Then `Nc1nc2c(-c3ccc(S(=O)(=O)N4CCOCC4)c(S(N)(=O)=O)c3-c3nnn[nH]3)cccc2s1` [Example 29, 3-(2-amino-1,3-benzothiazol-4-yl)-6-(morpholin-4-ylsulfonyl)-2-(1H-tetrazol-5-yl)benzenesulfonamide], with 16.00; and `NCC1CCCCN1S(=O)(=O)c1ccc(-c2cccc3sc(N)nc23)c(-c2nnn[nH]2)c1S(N)(=O)=O.O=C(O)C(F)(F)F` (stereo not drawn) [Example 110, (1-((4-(2-aminobenzo[d]thiazol-4-yl)-2-sulfamoyl-3-(1H-tetrazol-5-yl)phenyl)sulfonyl)piperidin-2-yl)methanaminium 2,2,2-trifluoroacetate], with 1.00; and `C[C@H](N)CNS(=O)(=O)c1ccc(-c2cccc3sc(N)nc23)c(-c2nnn[nH]2)c1S(N)(=O)=O.O=CO` [Example 127, (S)-4-(2-aminobenzo[d]thiazol-4-yl)-N1-(2-aminopropyl)-3-(1H-tetrazol-5-yl)benzene-1,2-disulfonamide, formate salt], with 1.00. On to `Nc1nc2c(-c3ccc(S(=O)(=O)NCC4(O)CCNCC4)c(S(N)(=O)=O)c3-c3nnn[nH]3)cccc2s1` [Example 86, 4-(2-aminobenzo[d]thiazol-4-yl)-N^1-((4-hydroxypiperidin-4-yl)methyl)-3-(1H-tetrazol-5-yl)benzene-1,2-disulfonamide], for which the Efflux ratio came out at 0.50.

Turning to `C[C@H](CN)NS(=O)(=O)c1ccc(-c2cccc3[nH]c(N)nc23)c(-c2nn[nH]n2)c1S(N)(=O)=O` [Example 187, 4-(2-amino-1H-benzo[d]imidazol-4-yl)-N^1—((R)-1-aminopropan-2-yl)-3-(2H-tetrazol-5-yl)benzene-1,2-disulfonamide], the Efflux ratio is on record as 0.50. `CC1(CN)CN(S(=O)(=O)c2ccc(-c3cccc4sc(N)nc34)c(-c3nnn[nH]3)c2S(N)(=O)=O)C1.O=C(O)C(F)(F)F` [Example 101, (1-((4-(2-aminobenzo[d]thiazol-4-yl)-2-sulfamoyl-3-(1H-tetrazol-5-yl)phenyl)sulfonyl)-3-methylazetidin-3-yl)methanaminium 2,2,2-trifluoroacetate]: the Efflux ratio was 1.00. Then `Nc1nc2c(-c3ccc(S(=O)(=O)N[C@H]4CO[C@H]5[C@H]4OC[C@H]5O)c(S(N)(=O)=O)c3-c3nnn[nH]3)cccc2s1` [Example 50, 2-({[4-(2-amino-1,3-benzothiazol-4-yl)-2-sulfamoyl-3-(1H-tetrazol-5-yl)phenyl]sulfonyl}amino)-1,4:3,6-dianhydro-2-deoxy-D-allitol], with 2.00; and `Nc1nc2c(-c3ccc(S(=O)(=O)N4CC[C@H](N)C4)c(S(N)(=O)=O)c3-c3nnn[nH]3)cccc2s1` [Example 61, 3-(2-amino-1,3-benzothiazol-4-yl)-6-{[(3S)-3-aminopyrrolidin-1-yl]sulfonyl}-2-(1H-tetrazol-5-yl)benzenesulfonamide], with 1.00. Then `Nc1nc2c(-c3ccc(S(=O)(=O)NCC4CCC(=O)N4)c(S(N)(=O)=O)c3-c3nnn[nH]3)cccc2s1` (stereo not drawn) [Example 19, 4-(2-amino-1,3-benzothiazol-4-yl)-N1-[(5-oxopyrrolidin-2-yl)methyl]-3-(1H-tetrazol-5-yl)benzene-1,2-disulfonamide], with 1.00; and `Nc1nc2c(-c3ccc(S(=O)(=O)N[C@@H]4CNC[C@@H]4F)c(S(N)(=O)=O)c3-c3nnn[nH]3)cccc2s1` [Example 58, 4-(2-amino-1,3-benzothiazol-4-yl)-N1-[(3R,4S)-4-fluoropyrrolidin-3-yl]-3-(1H-tetrazol-5-yl)benzene-1,2-disulfonamide], with 1.00.

`COCCNS(=O)(=O)c1ccc(-c2cccc3sc(N)nc23)c(-c2nnn[nH]2)c1S(N)(=O)=O` [Example 24, 4-(2-amino-1,3-benzothiazol-4-yl)-N^1-(2-methoxyethyl)-3-(1H-tetrazol-5-yl)benzene-1,2-disulfonamide]: the Efflux ratio is recorded as 4.00.

For `C[C@@H](N)CNS(=O)(=O)c1ccc(-c2cccc3[nH]c(N)nc23)c(-c2nn[nH]n2)c1S(N)(=O)=O` [Example 185, 4-(2-amino-1H-benzo[d]imidazol-4-yl)-N1-((R)-2-aminopropyl)-3-(2H-tetrazol-5-yl)benzene-1,2-disulfonamide], the Efflux ratio was determined as 0.65. Then `Nc1nc2c(-c3ccc(S(=O)(=O)NC4CCC5OC4CC5N)c(S(N)(=O)=O)c3-c3nnn[nH]3)cccc2s1.O=C(O)C(F)(F)F` (stereo not drawn) [Example 95, 2-(4-(2-aminobenzo[d]thiazol-4-yl)-2-sulfamoyl-3-(1H-tetrazol-5-yl)phenylsulfonamido)-8-oxabicyclo[3.2.1] octan-6-aminium 2,2,2-trifluoroacetate], with 1.00. Then `Nc1nc2c(-c3ccc(S(=O)(=O)N4CC[C@@H](F)[C@H](N)C4)c(S(N)(=O)=O)c3-c3nn[nH]n3)cccc2[nH]1` [Example 205, 3-(2-amino-1H-benzo[d]imidazol-4-yl)-6-(((3R,4R)-3-amino-4-fluoropiperidin-1-yl)sulfonyl)-2-(2H-tetrazol-5-yl)benzenesulfonamide], with 8.00.
